In ChEMBL document CHEMBL4219225, “Practical application of ligand efficiency metrics in lead optimisation” (Bioorg Med Chem, 2018):
Converted amounts (≈) assume the structure as drawn.

What was measured:
[1] = Solubility of the compound at pH 7.4; format: physicochemical; details: buffer
[2] = biological target: T1, Glucose-dependent insulinotropic receptor (Homo sapiens, UniProt Q8TDV5); assay: Agonist activity at GPR119 (unknown origin); format: functional
T1 sequence (Q8TDV5 whole entry): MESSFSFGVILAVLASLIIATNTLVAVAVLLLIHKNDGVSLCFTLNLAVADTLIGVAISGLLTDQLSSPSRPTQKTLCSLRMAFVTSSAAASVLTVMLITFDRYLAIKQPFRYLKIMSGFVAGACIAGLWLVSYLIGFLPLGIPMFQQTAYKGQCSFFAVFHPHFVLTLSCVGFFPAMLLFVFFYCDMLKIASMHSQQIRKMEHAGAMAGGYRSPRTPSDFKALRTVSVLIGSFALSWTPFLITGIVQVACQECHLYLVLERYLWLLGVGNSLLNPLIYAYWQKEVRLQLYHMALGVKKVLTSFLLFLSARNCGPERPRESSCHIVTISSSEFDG

[3] = biological target: Voltage-gated inwardly rectifying potassium channel KCNH2 (Homo sapiens, UniProt Q12809); assay: Inhibition of human ERG
Chain of Voltage-gated inwardly rectifying potassium channel KCNH2 (Q12809 whole entry): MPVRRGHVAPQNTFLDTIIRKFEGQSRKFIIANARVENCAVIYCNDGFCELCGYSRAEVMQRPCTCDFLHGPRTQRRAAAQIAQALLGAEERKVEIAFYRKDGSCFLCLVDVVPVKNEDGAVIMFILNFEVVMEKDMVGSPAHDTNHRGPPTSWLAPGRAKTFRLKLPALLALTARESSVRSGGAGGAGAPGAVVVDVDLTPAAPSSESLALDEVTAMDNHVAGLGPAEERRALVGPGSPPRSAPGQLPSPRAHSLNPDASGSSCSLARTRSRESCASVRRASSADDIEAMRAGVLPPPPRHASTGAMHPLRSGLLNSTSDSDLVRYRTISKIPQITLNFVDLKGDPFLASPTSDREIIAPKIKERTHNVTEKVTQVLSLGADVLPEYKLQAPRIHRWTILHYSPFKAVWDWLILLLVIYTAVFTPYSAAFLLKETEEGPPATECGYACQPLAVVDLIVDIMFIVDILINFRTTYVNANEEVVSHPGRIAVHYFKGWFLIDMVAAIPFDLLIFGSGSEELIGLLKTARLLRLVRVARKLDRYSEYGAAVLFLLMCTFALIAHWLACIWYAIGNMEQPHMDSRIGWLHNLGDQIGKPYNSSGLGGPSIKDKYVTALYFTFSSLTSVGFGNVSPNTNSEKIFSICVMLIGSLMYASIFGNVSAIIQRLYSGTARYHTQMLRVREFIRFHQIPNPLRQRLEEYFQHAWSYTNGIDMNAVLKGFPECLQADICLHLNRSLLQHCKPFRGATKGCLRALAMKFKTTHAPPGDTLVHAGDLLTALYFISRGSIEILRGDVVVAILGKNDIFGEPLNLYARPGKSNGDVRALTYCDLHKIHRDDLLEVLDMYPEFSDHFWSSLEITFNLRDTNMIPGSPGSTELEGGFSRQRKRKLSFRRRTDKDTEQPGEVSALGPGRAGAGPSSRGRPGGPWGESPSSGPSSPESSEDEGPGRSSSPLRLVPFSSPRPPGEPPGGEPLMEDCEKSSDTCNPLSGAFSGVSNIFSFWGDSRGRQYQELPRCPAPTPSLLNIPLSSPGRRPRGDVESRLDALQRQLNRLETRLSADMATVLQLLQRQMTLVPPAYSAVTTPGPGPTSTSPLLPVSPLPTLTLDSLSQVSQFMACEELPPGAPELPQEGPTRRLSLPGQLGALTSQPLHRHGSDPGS

[4] = Apparent permeability in MDCK cells; format: ADME, cell-based, Canis lupus familiaris; details: dog

Compound	solubility [1]	EC50 [2]	Papp [4]	IC50 [3]
Cc1nc(C)c(-c2ccc(-c3ccc([C@H](C)C(=O)O)cc3Cl)c(F)c2)nc1C(N)=O	–	–	14 ×10⁻⁶ cm/s	–
Cc1nc(C)c(-c2ccc(-c3ccc(CC(=O)O)cc3)c(Cl)c2)nc1C(N)=O	–	–	7.4 ×10⁻⁶ cm/s	–

Further lines, with some results ahead:

solubility [1]	EC50 [2]	Papp [4]	Compound	IC50 [3]
4800 µM (≈ 2080 µg/mL)	0.00501 µM	–	N#Cc1cnccc1COc1cnc(N2CCN(c3nc(C(F)(F)F)no3)CC2)nc1	6.31 µM
3.1 µM (≈ 1.34 µg/mL)	0.002 µM	–	N#Cc1cnccc1COc1cnc(N2CCN(c3noc(C(F)(F)F)n3)CC2)nc1	6.31 µM
120 µM (≈ 51.9 µg/mL)	0.0251 µM	–	N#Cc1cnccc1COc1cnc(N2CCN(c3nnc(C(F)(F)F)o3)CC2)nc1	20 µM
